Measured values: patent US20230332232A1, “COMPOSITIONS AND METHODS FOR DIAGNOSING AND TREATING A DYSTONIA” (Duke University, priority 2020, published 2023)

Tested on: wild-type (WT) murine embryonic fibroblasts (MEFs)
Assay: Untargeted LC/MS/MS proteomics of EVs from WT MEFs exposed 24 hours to drug, compared with untreated WT MEFs
Type: cell-based, mouse
Protocol: Methods for isolation and purification of exosomes and extracellular vesicles (EV) were extensively reviewed. Experiments were performed to arrive at a robust and reproducible protocol. The protocol used herein is that set forth in Théry et al, 2006, which is incorporated by reference for it teaching of this protocol. This protocol involves depleting serum-derived EVs from cell culture media by overnight ultracentrifugation and exchanging media for 1% FBS EV-depleted media. Media is then collected from cells following a 24-hour conditioning period and EVs are isolated by 18-hour ultracentrifugation at 100,000 g (FIG. 1A).
EVs were isolated from media of cultured murine embryonic fibroblasts (MEFs) prepared in-house according to protocols described by Xu 2005 from DYT1 knockin mice (Tor1a^delGAG/+) (Goodchild R E, et al. (2005) Neuron. 48:923-932) and littermate wild-type (WT) controls. The cultured MEFs from the DYT1 mice were exposed for 24 hours to Ritonavir (RTV) while the MEFs from WT mice were exposed to vehicle, ISRIB, or Salubrinal (SAL). The EVs isolated from these WT cells and DYT1 were characterized by untargeted proteomics and RNA-seq to identify differentially expressed proteins and RNAs as candidate biomarkers. Experimenter and Proteomics core staff were blinded to genotype of cell cultures throughout preparation and analysis phases. EV isolation was confirmed by Western immunoblot documenting presence of the exosomal marker (TSG101) and absence of the endoplasmic reticulum (ER) marker (CANX) (FIG. 1B (Cohort 1) and FIG. 1C (Cohort 2)).
Following the bicinchoninic acid assay (BCA) analysis and Western immunoblot of a portion of samples for QC, 11.6 μg-129.2 μg of EV protein lysates in RIPA buffer were sent to the Duke Proteomics and Metabolomics Shared Resource core facility for LC/MS/MS quantitative proteomic analysis. Samples were first normalized to 20 μg and spiked with undigested casein at a total of 40 fmol/μg, 80 fmol/μg, or 160 fmol/μg, then reduced with 10 mM dithiolthreitol for 30 minute at 80° C. and alkylated with 20 mM iodoacetamide for 30 minutes at room temperature. Next, the samples were supplemented with a final concentration of 1.2% phosphoric acid and 741 μL of S-Trap (Protifi) binding buffer (90% MeOH/100 mM […]). Proteins were trapped on the S-Trap, digested using 20 ng/μL sequencing grade trypsin (Promega) for 1 hour at 47° C., and eluted using 50 mM TEAB, followed by 0.2% FA, and lastly using 50% CAN/0.2% FA. All samples were then lyophilized to dryness and resuspended in 40 μL 1% TFA/2% acetonitrile containing 12.5 fmol/μL yeast alcohol dehydrogenase (ADH_YEAST). A QC Pool was created from 3 uL of each sample. All QC Pools were run periodically throughout the acquisition period.
Quantitative LC/MS/MS was performed on 2 μL of each sample, using a nanoAcquity UPLC system (Waters Corp) coupled to a Thermo Orbitrap Fusion Lumos high resolution accurate mass tandem mass spectrometer (Thermo) via a nanoelectrospray ionization source. Briefly, the sample was first trapped on a Symmetry C18 20 mm×180 μm trapping column (5 μL/min at 99.9/0.1 v/v water/acetonitrile), after which the analytical separation was performed using a 1.8 μm Acquity HSS T3 C18 75 μm×250 mm column (Waters Corp.) with a 90 minute linear gradient of 5% to 30% acetonitrile with 0.1% formic acid at a flow rate of 400 nanoliters/minute (nL/min) with a column temperature of 55° C. Data collection on the Fusion Lumos mass spectrometer was performed in a data-dependent acquisition (DDA) mode of acquisition with a r=120,000 (@ m/z 200) full MS scan from m/z 375-1500 with a target AGC value of 2e5 ions. MS/MS scans were acquired at Rapid scan rate (Ion Trap) with an AGC target of 5e3 ions and a max injection time of 100 ms. The total cycle time for MS and MS/MS scans was 2 seconds. A 20 second dynamic exclusion was employed to increase depth of coverage. The total analysis cycle time for each sample injection was approximately 2 hours. […]

[1] = EV protein P09528, Ferritin heavy chain

## O=C(COc1ccc(Cl)cc1)NC1CCC(NC(=O)COc2ccc(Cl)cc2)CC1 (centres unmarked) [ISRIB]
EV protein Akr1b1 (P45376)
  ISRIB Direction Same as dE?: yes
  ISRIBvWT Z Score: −0.22
EV protein Aldh2 (P47738)
  ISRIB Direction Same as dE?: yes
  ISRIBvWT Z Score: −7.25
EV protein Cnn3 (Q9DAW9)
  ISRIBvWT Z Score: 2.76
EV protein Cnot1 (Q6ZQ08)
  ISRIB Direction Same as dE?: yes
  ISRIBvWT Z Score: −2.56
EV protein Col5a1 (Q88207)
  ISRIB Direction Same as dE?: yes
  ISRIBvWT Z Score: 0.06
EV protein Copb2 (Q55029)
  ISRIB Direction Same as dE?: yes
  ISRIBvWT Z Score: −1.11
EV protein Cryab (P23927)
  ISRIBvWT Z Score: 0.39
EV protein Cxadr (P97792)
  ISRIBvWT Z Score: 1.72
EV protein D3YXG0
  ISRIBvWT Z Score: −2.25
EV protein Dars (Q922B2)
  ISRIB Direction Same as dE?: yes
  ISRIBvWT Z Score: −1.13
EV protein Dctn2 (Q99KJ8)
  ISRIB Direction Same as dE?: yes
  ISRIBvWT Z Score: −0.53
EV protein Ddx3x (Q62167)
  ISRIB Direction Same as dE?: yes
  ISRIBvWT Z Score: −1.08
EV protein Ddx5 (Q61656)
  ISRIB Direction Same as dE?: yes
  ISRIBvWT Z Score: −0.92
EV protein Ddx39b (Q9Z1N5)
  ISRIB Direction Same as dE?: yes
  ISRIBvWT Z Score: −1.12
EV protein Dhx9 (Q70133)
  ISRIB Direction Same as dE?: yes
  ISRIBvWT Z Score: −1.27
EV protein Dhx15 (Q35286)
  ISRIB Direction Same as dE?: yes
  ISRIBvWT Z Score: −1.19
EV protein Esyt1 (Q3U7R1)
  ISRIBvWT Z Score: 0.18
EV protein Exoc4 (Q35382)
  ISRIB Direction Same as dE?: yes
  ISRIBvWT Z Score: −1.51
EV protein Fth1 P09528
  ISRIBvWT Z Score: −3.46
EV protein Fus (P56959)
  ISRIBvWT Z Score: 0.85
EV protein Gsto1 (Q09131)
  ISRIBvWT Z Score: 0.04
EV protein Hist1h3a (P68433)
  ISRIB Direction Same as dE?: yes
  ISRIBvWT Z Score: −0.97
EV protein Hnrnpf (Q9Z2X1)
  ISRIB Direction Same as dE?: yes
  ISRIBvWT Z Score: −0.18
EV protein Hnrnph1 (Q35737)
  ISRIBvWT Z Score: 2.47
EV protein Idh2 (P54071)
  ISRIB Direction Same as dE?: yes
  ISRIBvWT Z Score: −2.01
EV protein Impa1 (Q55023)
  ISRIBvWT Z Score: 1.73
EV protein Ipo7 (Q9EPL8)
  ISRIBvWT Z Score: 0.30
EV protein Ipo11 (Q8K2V6)
  ISRIB Direction Same as dE?: yes
  ISRIBvWT Z Score: −1.97
EV protein Itgb3 (Q54890)
  ISRIBvWT Z Score: 0.14
EV protein Itm2b Q89051
  ISRIBvWT Z Score: −2.13
EV protein Itpa (Q9D892)
  ISRIB Direction Same as dE?: yes
  ISRIBvWT Z Score: −1.25
EV protein Kpna4 (Q35343)
  ISRIB Direction Same as dE?: yes
  ISRIBvWT Z Score: −3.18
EV protein Lipg (Q9WVG5)
  ISRIB Direction Same as dE?: yes
  ISRIBvWT Z Score: −2.47
EV protein Ltbp1 (Q8CG19)
  ISRIB Direction Same as dE?: yes
  ISRIBvWT Z Score: 2.17
EV protein Mcm2 (P97310)
  ISRIB Direction Same as dE?: yes
  ISRIBvWT Z Score: −2.10
EV protein Mdk (P12025)
  ISRIBvWT Z Score: 1.33
EV protein Mtap (Q9CQ65)
  ISRIB Direction Same as dE?: yes
  ISRIBvWT Z Score: −0.85
EV protein Myo18a
  ISRIBvWT Z Score: 2.27
EV protein Nrbp1 (Q99J45)
  ISRIBvWT Z Score: 0.18
EV protein Otub1 (Q7TQ..)
  ISRIBvWT Z Score: 2.26
EV protein Otub1 (Q7TQB)
  ISRIB Direction Same as dE?: yes
  ISRIBvWT Z Score: −2.26
[1]
  ISRIB Direction Same as dE?: yes
  ISRIBvWT Z Score: −3.46
EV protein P27612, Phospholipase A-2-activating protein
  ISRIB Direction Same as dE?: yes
